# Measurements reported in patent publication US6365616B1, “Methimazole derivatives and tautomeric cyclic thiones to treat autoimmune diseases” (Sentron Medical, Inc., priority 1998, dated 2002).
# Where two headings read alike, the source gives them in different places.
# Assays:
# [1] = tested on: swine class I promoter (PD1); test: Transient transfection CAT assay, class I promoter chimeras in FRTL-5 cells; format: cell-based; details: 6H medium
# Source text: The full length PD1 promoter, PD1 CAT construct pH […], inserted into the multicloning site of pSV3CAT, has been previously described (Erhlich, R. et al. Immunogenetics 30:18-26 (1989)). […] The deletion series was also cloned into the pSV3CAT reporter construct to assess promoter activities (Weisman J D, et al. ibid (1991); Maguire, J. et al., Mol. Cell. Biol., 12:3078-3086 (1992)). […] The number denotes the most 5′-residue in the 5′-flanking region of the PD1 promoter.
# FRTL-5 rat thyroid cells (Interthyr Research Foundation, Baltimore, Md.; ATCC CRL8305) were the same subclone (F1) used in the gel shift experiments described earlier. They were grown in the following medium: Coon's modified F-12 medium containing 5% heat-treated, mycoplasma-free calf serum, 1 mM nonessential amino acids, and a mixture of six hormones (6H) containing bovine TSH (1×10^−10M), insulin (10 μg/ml), cortisol (0.4 ng/ml), transferrin (5 μg/ml), glycyl-L-histidyl-L-lysine acetate (10 ng/ml), and somatostatin (10 ng/ml). Cells were diploid and between their 5th and 25th passage. Fresh medium was added every 2 or 3 days and cells were passaged every 7-10 days. In some experiments, cells were grown to near confluency in 6H medium then maintained for 5-8 days, before experiments were initiated, in 5H medium with no TSH.
# To measure the promoter activity of MHC class I promoter constructs, as reported by CAT activity, two procedures were used. In one, rat FRTL-5 thyroid cells were transfected by the electroporation method described previously (Saji, M., et al., ibid (1992b); Giuliani, C., et al., ibid (1995); Saji, M., et al., ibid (1997)). In brief, FRTL-5 cells were grown to 80% confluence, put in fresh 6H medium containing 5% calf serum for 12 hours, harvested, washed and suspended at 1.5×10^7 cells/mil in 0.8 ml electroporation buffer (272 mM sucrose, 7 mM sodium phosphate at pH 7.4, and 1 mM MgCl2). Twenty μg of the full-length CAT construct were added with 5 μg pSVGH. Cells were then pulsed (330 volts, capacitance 25 μfarad), plated (approximately 6×10^6 cell/dish), and cultured for 12 hours in 6H medium containing 5% calf serum. […] After 48 hours they were harvested. […] Medium was taken for hGH radioimmunoassay to monitor transfection efficiency (Nichols Institute, San Juan Capistrano, Calif.) and cells were harvested for CAT assays which used 20-50 μg cell lysate in a final volume of 130 μl. Incubation was at 37° C. for 2 or 4 hours; acetylated chloramphenicol was separated by thin layer chromatograpy (TLC) and positive spots on TLC plates were cut out and quantitated in a scintillation spectrometer. CAT activity was normalized to GH activity and/or cell protein before data were compared.
# Alternatively transient transfections used the same class I-CAT chimeras and a DEAE-dextran procedure (Lopata M A, et al., Nucleic Acids Res. 12:5707-5717 (1984); Giuliani C, et al., ibid (1995)). Cells were grown to near (80%) confluency in 6H medium, shifted to 5H medium for 1 day, washed twice with Dulbecco's modified phosphate buffered saline (DPBS), pH 7.4, and incubated 1 hour with 5 ml serum-free 5H medium containing the plasmid DNA plus 250 μg DEAE-dextran (5 Prime-3 Prime, Inc.). Cells were then exposed to 10% dimethylsulfoxide in DPBS for 3 min., washed twice in DPBS, cultured in 5H medium for 24 hours, then maintained therein another 48 hours with or without MMI, MMI derivatives or tautomeric cyclic thiones, as noted. Efficiency of transfection was determined by cotransfection as above or with 5 μg pRSVLuc (De Wet J R, et al., Mol. Cell. Biol. 7:725-737 (1987)).
# In this experiment, FRTL-5 cells were grown to near confluency in 6H medium (plus TSH) and then were maintained in 5H medium (no TSH) for 7 days before being treated with γ-IFN or γ-IFN plus MMI for 40 hours. Control cells were those maintained in 5H medium for the same 40 hours. CAT activity was measured as described above.
# [2] = tested on: MHC class I antigen expression; test: Flow cytometry of IFN-increased class I antigen expression in FRTL-5 cells; format: cell-based, rat; details: 100 U/ml γ-interferon, 6H medium (TSH), 40 hours
# Protocol: In this experiment 10^6 cells were incubated with MHC class II or MHC class I-specific antibodies as described (Montani, V., et al., ibid (1998b); Saji, M., et al., ibid (1992a); Balducci-Silano, P. L., et al., Endocrinology 139:2309-2313 (1998)). After 30 min on ice, cells were washed with phosphate buffered saline at pH 7.4 and incubated for 30 min with fluorescein-isothiocyanate (FITC)-conjugated antibodies then analyzed by flow cytometry on a FACScan Cytometer using CellQuest software (Becton Dickinson).
# The concentration needed to achieve suppression of the interferon induced class I or class II surface expression was determined by testing different concentrations of the compounds (Table 18). Like all other assays, the order of effectiveness was compound 10>11>7 or 8>2>MMI>3.
# [3] = tested on: Y box protein (TSEP-1) RNA; test: Northern analysis of Y box protein (TSEP-1) RNA levels in FRTL-5 cells; format: cell-based, rat; details: 40 hours
# Source text: Whereas γ-IFN decreases Y box protein RNA levels in FRTL-5 cells, MMI can reverse this action (FIG. 16). […] The rat TSEP-1 probe was the clone 31 insert, residues 5 to 1395 of the rat TSEP-1 nucleotide sequence reported (Ohmori, M., et al., ibid (1996)); rat β-actin was kindly provided by Dr. B. Paterson (NCI, Bethesda, Md.). Radiolabeling of all probes, hybridization (0.5-1.0×10^6cpm/ml), and washing were as described (Isozaki, O., et al., ibid (1989); Saji, M., et al., ibid (1992); Ohmori, M., et al., ibid (1996)).
# The ability of the compounds to reverse the γ-IFN-induced decrease in TSEP-1 RNA levels is once again 10>11>7 or 8>2>MMI>3. This mimics data in all other assays.
compound,measurement,setting,value
"Cn1ccn(C)c1=S [Compound 8, N-Methylmethimazole]",% inhibition of IFN-increased p(−203)CAT class I promoter activity,"[1]; 10 μM, 100 U/ml γ-interferon, 40 hours",0%
same,% inhibition of basal p(−203)CAT class I promoter activity,"[1]; 25 μM, 36 hours",5 ± 5%
same,% inhibition of basal p(−203)CAT class I promoter activity,"[1]; 100 μM, 36 hours",48 ± 10%
same,% inhibition of IFN-increased p(−203)CAT class I promoter activity,"[1]; 100 μM, 100 U/ml γ-interferon, 40 hours",38 ± 9%
same,% inhibition of basal p(−203)CAT class I promoter activity,"[1]; 1.0 mM, 36 hours",72 ± 6%
same,% inhibition of IFN-increased p(−203)CAT class I promoter activity,"[1]; 1.0 mM, 100 U/ml γ-interferon, 40 hours",69 ± 7%
same,% inhibition of basal p(−203)CAT class I promoter activity,"[1]; 5 mM, 36 hours",87 ± 11%
same,% inhibition of IFN-increased p(−203)CAT class I promoter activity,"[1]; 5 mM, 100 U/ml γ-interferon, 40 hours",77 ± 14%
same,"Concentration to inhibit IFN-increased antigen expression, Class I",[2],356 ± 70 µM
same,"Y box protein (TSEP-1) RNA level, compound +γIFN",[3]; 100 μM compound + γIFN,77 ± 6%
same,"Y box protein (TSEP-1) RNA level, compound ALONE",[3]; 100 μM compound alone,119 ± 13%
same,"Y box protein (TSEP-1) RNA level, compound +γIFN",[3]; 1 mM compound + γIFN,148 ± 12%
same,"Y box protein (TSEP-1) RNA level, compound ALONE",[3]; 1 mM compound alone,115 ± 5%
"Cn1c(-c2ccccc2)cnc1S [Compound 10, 5-Phenylmethimazole]",inhibition at 10 µM,"[1]; Sus scrofa, FRTL-5, 10 μM, 100 U/ml γ-interferon, 40 hours, read-out: % inhibition of IFN-increased p(−203)CAT class I promoter activity",35 ± 10%
same,inhibition at 25 µM,"[1]; Sus scrofa, FRTL-5, 25 μM, 36 hours, read-out: % inhibition of basal p(−203)CAT class I promoter activity",45 ± 9%
same,inhibition at 100 µM,"[1]; Sus scrofa, FRTL-5, 100 μM, 36 hours, read-out: % inhibition of basal p(−203)CAT class I promoter activity",71 ± 6%
same,inhibition at 100 µM,"[1]; Sus scrofa, FRTL-5, 100 μM, 100 U/ml γ-interferon, 40 hours, read-out: % inhibition of IFN-increased p(−203)CAT class I promoter activity",81 ± 14%
same,inhibition at 1000 µM,"[1]; Sus scrofa, FRTL-5, 1.0 mM, 36 hours, read-out: % inhibition of basal p(−203)CAT class I promoter activity",92 ± 12%
same,inhibition at 1000 µM,"[1]; Sus scrofa, FRTL-5, 1.0 mM, 100 U/ml γ-interferon, 40 hours, read-out: % inhibition of IFN-increased p(−203)CAT class I promoter activity",90 ± 13%
same,"Concentration to inhibit IFN-increased antigen expression, Class I",[2],40 ± 10 µM
same,"Y box protein (TSEP-1) RNA level, compound +γIFN",[3]; 100 μM compound + γIFN,183 ± 12%
same,"Y box protein (TSEP-1) RNA level, compound ALONE",[3]; 100 μM compound alone,124 ± 4%
same,"Y box protein (TSEP-1) RNA level, compound +γIFN",[3]; 1 mM compound + γIFN,178 ± 10%
same,"Y box protein (TSEP-1) RNA level, compound ALONE",[3]; 1 mM compound alone,122 ± 8%
